The results in this text go back to PubChem BioAssay AID248 (DTP/NCI, 2004).

Where “and” joins values, the source holds several entries; their conditions need not be identical. Equal entries are not always repeated. Toxic doses and inconclusive results are not listed.

The assay deals with L1210 leukemia ip in BDF1 mice, survival T/C. As to the kind of experiment: NCI In Vivo Anticancer Drug Screen. Data for tumor model L1210 Leukemia (intraperitoneal) in B6D2F1 (BDF1) mice. As to conditions: endpoint: mean survival time, higher = longer survival. Summed up: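 Tumor was transplanted into mice, which were then dosed with test compound or vehicle alone. Survival was recorded for each group, and the treated figure was expressed relative to the control figure.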

[1] abbreviates: dose: 200.0 mg/kg/injection, schedule: Q04DX003 (ip), vehicle: saline with Tween-80.
[2] abbreviates: dose: 300.0 mg/kg/injection, schedule: Q04DX003 (ip), vehicle: saline with Tween-80.
Where [3] appears, read: dose: 100.0 mg/kg/injection, schedule: Q04DX003 (ip), vehicle: Klucel (hydroxypropylcellulose) (HPC).
Setting [4] is: dose: 200.0 mg/kg/injection, schedule: Q04DX003 (ip), vehicle: Klucel (hydroxypropylcellulose) (HPC).
Setting [5] is: dose: 400.0 mg/kg/injection, schedule: Q04DX003 (ip), vehicle: Klucel (hydroxypropylcellulose) (HPC).
The mark [6] stands for this setting: dose: 100.0 mg/kg/injection, schedule: Q01DX009 (ip), vehicle: Klucel (hydroxypropylcellulose) (HPC).
The mark [7] stands for this setting: dose: 200.0 mg/kg/injection, schedule: Q01DX009 (ip), vehicle: Klucel (hydroxypropylcellulose) (HPC).
Where [8] appears, read: dose: 100.0 mg/kg/injection, schedule: Q04DX002 (ip), vehicle: Klucel (hydroxypropylcellulose) (HPC).
[9] abbreviates: dose: 50.0 mg/kg/injection, schedule: Q04DX003 (ip), vehicle: saline with Tween-80.
Setting [10] is: dose: 100.0 mg/kg/injection, schedule: Q04DX003 (ip), vehicle: saline with Tween-80.

As to `CC(=O)OCCn1c2ccccc2c2c(C)c3cnccc3c(C)c21`, the T/C (dose: 37.5 mg/kg/injection, schedule: Q04DX003 (ip), vehicle: saline) is 115 % of control; the T/C (dose: 150.0 mg/kg/injection, schedule: Q04DX003 (ip), vehicle: saline) is 154 % of control; the T/C under setting [1] was 108 % of control; the T/C under setting [2] is 102 % of control; the T/C (dose: 300.0 mg/kg/injection, schedule: Q04DX003 (ip), vehicle: saline) was 290 % of control.

For `NC(CCCc1ccccc1)C(=O)O` (stereo not given), the T/C runs as follows: (dose: 50.0 mg/kg/injection, schedule: Q04DX003 (ip), vehicle: Klucel (hydroxypropylcellulose) (HPC)) 98 % of control; under setting [3], 96 % of control; under setting [4], 88 % of control; under setting [5], 94 % of control.

As for `N#CCCSCCSCCC#N`, the T/C was 95 % of control under setting [6]; 97 % of control under setting [7]; 101 % of control (dose: 400.0 mg/kg/injection, schedule: Q01DX009 (ip), vehicle: Klucel (hydroxypropylcellulose) (HPC)).

`[NH-]S(=O)(=O)O.[NH-]S(=O)(=O)O.[NH2-].[NH2-].[Pt+4]`: the T/C is 100 % of control (dose: 10.0 mg/kg/injection, schedule: Q01DX009 (ip), vehicle: saline with Tween-80); 90 % of control (dose: 20.0 mg/kg/injection, schedule: Q01DX009 (ip), vehicle: saline with Tween-80); 100 % of control (dose: 40.0 mg/kg/injection, schedule: Q01DX009 (ip), vehicle: saline with Tween-80).

Consider `CCC1(OC(C)=O)C(=O)OCc2c1cc1n(c2=O)Cc2cc3ccccc3nc2-1` (stereo not given), for which the T/C reads like this: (dose: 0.13 mg/kg/injection, schedule: Q01DX009 (ip), vehicle: carboxymethylcellulose (CMC)) 96 % of control; (dose: 0.13 mg/kg/injection, schedule: Q01DX Z (ip), vehicle: water) 93 % of control; (dose: 0.22 mg/kg/injection, schedule: Q01DX Z (ip), vehicle: water) 116 % of control; (dose: 0.25 mg/kg/injection, schedule: Q01DX009 (ip), vehicle: carboxymethylcellulose (CMC)) 96 % of control; (dose: 0.36 mg/kg/injection, schedule: Q01DX Z (ip), vehicle: water) 108 % of control; (dose: 0.5 mg/kg/injection, schedule: Q01DX009 (ip), vehicle: carboxymethylcellulose (CMC)) 91 % of control. The T/C is, setting by setting: (dose: 1.0 mg/kg/injection, schedule: Q01DX009 (ip), vehicle: carboxymethylcellulose (CMC)) 104 % of control; (dose: 1.0 mg/kg/injection, schedule: Q01DX Z (ip), vehicle: water) 114 % of control; (dose: 2.0 mg/kg/injection, schedule: Q01DX009 (ip), vehicle: carboxymethylcellulose (CMC)) 91 % of control.

For the molecule `CC(C)C(C)/C=C/C(C)C1CCC2C3=C(C=CC21C)C1(C)CCCCC1=CC3C1C=C2CCCCC2(C)C2=C1C1CCC(C(C)/C=C/C(C)C(C)C)C1(C)C=C2` (stereo not given), the T/C is 90 % of control under setting [3], 100 % of control under setting [4] and 90 % of control under setting [5].

Take `CCS(=O)(=O)OCCCl`: the T/C (dose: 25.0 mg/kg/injection, schedule: Q01DX009 (ip), vehicle: Klucel (hydroxypropylcellulose) (HPC)) was 94 % of control; the T/C (dose: 25.0 mg/kg/injection, schedule: Q04DX002 (ip), vehicle: Klucel (hydroxypropylcellulose) (HPC)) is 97 % of control; the T/C (dose: 50.0 mg/kg/injection, schedule: Q01DX009 (ip), vehicle: Klucel (hydroxypropylcellulose) (HPC)) was 93 % of control; the T/C (dose: 50.0 mg/kg/injection, schedule: Q04DX002 (ip), vehicle: Klucel (hydroxypropylcellulose) (HPC)) is 94 % of control; the T/C (dose: 100.0 mg/kg/injection, schedule: Q01DX001 (ip), vehicle: carboxymethylcellulose (CMC)) is 112 % of control; the T/C under setting [8] is 102 % of control and 90 % of control. The T/C (dose: 200.0 mg/kg/injection, schedule: Q01DX001 (ip), vehicle: carboxymethylcellulose (CMC)) is 116 % of control.

For `C/C(CC(C)(C)c1ccccc1)=N/NC(N)=O`, the T/C is 104 % of control under setting [6] and 98 % of control under setting [7].

In the case of `NC(=S)N/N=C/c1ccc([N+](=O)[O-])s1`, the T/C was 102 % of control (dose: 12.5 mg/kg/injection, schedule: Q01DX005 (ip), vehicle: water); 98 % of control (dose: 25.0 mg/kg/injection, schedule: Q01DX005 (ip), vehicle: water); 93 % of control (dose: 50.0 mg/kg/injection, schedule: Q01DX005 (ip), vehicle: water); 103 % of control under setting [9]; 100 % of control (dose: 100.0 mg/kg/injection, schedule: Q01DX005 (ip), vehicle: water); 104 % of control under setting [10]. Besides, the T/C (dose: 100.0 mg/kg/injection, schedule: Q04DX003 (ip), vehicle: water) is 88 % of control; the T/C (dose: 200.0 mg/kg/injection, schedule: Q01DX005 (ip), vehicle: water) is 94 % of control; the T/C under setting [1] was 100 % of control; the T/C (dose: 200.0 mg/kg/injection, schedule: Q04DX003 (ip), vehicle: water) is 91 % of control.

As to `O=C(Nc1cccc([N+](=O)[O-])c1)c1ccc(Cl)c(Cl)c1`, the T/C is, setting by setting: (dose: 25.0 mg/kg/injection, schedule: Q04DX003 (ip), vehicle: saline with Tween-80) 115 % of control; under setting [9], 96 % of control; under setting [10], 99 % of control; under setting [1], 86 % of control; under setting [2], 86 % of control.

For the molecule `Nc1ccc([I+]c2ccccc2)cc1`, the T/C (dose: 50.0 mg/kg/injection, schedule: Q01DX001 (ip), vehicle: saline) is 101 % of control and the T/C (dose: 100.0 mg/kg/injection, schedule: Q01DX001 (ip), vehicle: saline) was 103 % of control.

On to `CC1(C)CC(=O)C2=C(C1)Nc1ccc(Cl)cc1NC2c1cccc([N+](=O)[O-])c1` (stereo not given), for which the T/C is 98 % of control under setting [8]; 105 % of control (dose: 200.0 mg/kg/injection, schedule: Q04DX002 (ip), vehicle: Klucel (hydroxypropylcellulose) (HPC)); 102 % of control (dose: 400.0 mg/kg/injection, schedule: Q04DX002 (ip), vehicle: Klucel (hydroxypropylcellulose) (HPC)).

`CCOC(CN)OCC`: the T/C by setting is: (dose: 100.0 mg/kg/injection, schedule: Q01DX009 (ip), vehicle: saline) 114 % of control; (dose: 100.0 mg/kg/injection, schedule: Q04DX003 (ip), vehicle: saline) 112 % of control; (dose: 200.0 mg/kg/injection, schedule: Q01DX009 (ip), vehicle: saline) 107 % of control; (dose: 200.0 mg/kg/injection, schedule: Q04DX003 (ip), vehicle: saline) 102 % of control; (dose: 400.0 mg/kg/injection, schedule: Q01DX009 (ip), vehicle: saline) 106 % of control; (dose: 400.0 mg/kg/injection, schedule: Q04DX003 (ip), vehicle: saline) 97 % of control.

For `COc1ccc(OC(=O)Nc2ccc(Cl)cc2OC)cc1`, the T/C is, setting by setting: under setting [6], 92 % of control; under setting [7], 95 % of control.

In the case of `Cc1cc(C)c(O)c(C)c1.[Hg]`, the T/C (dose: 12.5 mg/kg/injection, schedule: Q01DX001 (ip), vehicle: Klucel (hydroxypropylcellulose) (HPC)) was 87 % of control.
